Like-named read-outs stand apart in the source and are kept apart here.
Tests used:
[1] = Water miscibility of solvents; type: physicochemical; set-up: key: -: Where phase separation was visible; +: otherwise; settings: 0.5 ml water + 0.5 ml solvent
Description: Various solvents were tested for their utility with regard to (1) water miscibility, (2) guaiac solubility and (3) color development. Water miscibility was evaluated by admixing 0.5 ml of water with 0.5 ml each solvent, and noting any phase separation. Where phase separation was visible, a "-" appears in Table 2; otherwise, a "+" appears.

[2] = Guaiac solubility in solvents / reagent solubility in water
Description: Color developing reagent was prepared as follows. […] Four ml of a given solvent as indicated in Table 2 were added and the guaiac was allowed to dissolve to the extent possible.
Subsequently, 48 μl of 80% cumene hydroperoxide was added to each tube (except to that containing the water-only sample) to make a complete color developing reagent (solvent, chromogen, oxidant) for testing.

| GUAIAC SOLUBILITY [2] | Molecule | WATER MISCIBILITY [1] | GUAIAC SOLUBILITY ([2]; noted visually) | solubility of cumene hydroperoxide in water ([2]; water) |
| --- | --- | --- | --- | --- |
|  | CC(Cl)(Cl)Cl [1,1,1-trichloroethane] | - | ++ |  |
|  | CC(C)c1ccc(CO)cc1 [4-Isopropyl-Benzyl Alcohol] | - | +++ |  |
| +++ | CC(=O)CC(C)(C)O [4-hydroxy, 4 methyl-pentanone] |  |  |  |
|  | CC(C)=O [Acetone] | + | +++ |  |
|  | CC(C)c1ccccc1 [Cumene] | - | + |  |
|  | ClCCl [Dichloromethane] | - | ++ |  |
| +++ | CCO [Ethanol] | + |  |  |
|  | CCOC(C)=O [Ethyl Acetate] | - | ++ |  |
|  | OCCO [Ethylene Glycol] | + | +++ |  |
|  | CC(C)O [Isopropanol] | + | +++ |  |
|  | CCC(C)=O [Methyl Ethyl Ketone] | + |  |  |
|  | COC(=O)CC(C)=O [Methyl-Acetoacetate] | + | +++ |  |
| ++ | CCCCCCCCOC(C)=O [Octyl Acetate] | - |  |  |
|  | Cc1ccccc1 [Toluene] | - |  |  |
|  | CC(C)(OO)c1ccccc1 [cumene hydroperoxide, reference compound] |  |  | essentially insoluble in water |
|  | CCCCCCCO [n-Heptanol] | - | +++ |  |
|  | CCCCCCO [n-Hexanol] | - |  |  |
|  | CCCCCCCC [n-Octane] | - | - |  |
| +++ | CCCCCCCCO [n-Octanol] | - |  |  |
| +++ | CCCCCO [n-Pentanol] | - |  |  |

| Molecule | GUAIAC SOLUBILITY [2] | WATER MISCIBILITY [1] | GUAIAC SOLUBILITY ([2]; noted visually) | solubility of cumene hydroperoxide in water ([2]; water) |
| --- | --- | --- | --- | --- |
| OCc1ccccc1 [Benzyl Alcohol] | +++ | - |  |  |
| Hexanes | - | - |  |  |

Source: patent US4777143A, “Method of detecting carboxylic acids in a specimen” (priority 1986, dated 1988)
